Results reported in ChEMBL document CHEMBL6083284, “Identification of TAK-756, A Potent TAK1 Inhibitor for the Treatment of Osteoarthritis through Intra-Articular Administration” (J Med Chem, 2024).
Converted amounts (≈) assume the structure as drawn.

Columns and labels:
[1] = Drug concentration in synovial fluid of Sprague-Dawley rat at 250 ug, IART measured for 168 hrs by LC-MS/MS analysis; type: ADME, tissue-based; conditions: for concentration at 168 h: Sprague-Dawley, synovial fluid, 250 ug, read-out: Ct
[2] = Inhibition of MMP3 production in human C20/A4 cells by Nano-Glo HiBit assay; conditions: C20/A4, read-out: pEC50 (converted)
[3] = Inhibition of IL-6 production in human SW982 cells by Nano-Glo HiBit assay; conditions: SW982, read-out: pEC50 (converted)
[4] = Partition coefficient, logP of compound in octanol/water; type: physicochemical
[5] = Terminal half life in plasma of Sprague-Dawley rat at 250 ug, IART measured for 168 hrs by LC-MS/MS analysis; type: ADME, cell-free; conditions: dose 250 µg, read-out: beta t1/2 (converted)
[6] = Thermodynamic solubility in simulated synovial fluid containing PBS/BSA incubated for 20 hrs by HPLC-HRMS analysis; type: physicochemical; conditions: read-out: Therm_solubility
[7] = Protein binding in bovine synovial fluid assessed as unbound fraction at 5 uM incubated for 4 hrs by rapid equilibrium dialysis; type: ADME, tissue-based, Bos taurus; conditions: cattle
[8] = Free drug concentration in synovial fluid of Sprague-Dawley rat at 250 ug, IART measured for 168 hrs by LC-MS/MS analysis; type: ADME, tissue-based; conditions: in vivo, other, dose 250 µg
[9] = target: T1, Interleukin-1 receptor-associated kinase 4 (Homo sapiens) (UniProt Q9NWZ3); test: Inhibition of IRAK4 (unknown origin) at 1 uM relative to control
T1 sequence (whole entry): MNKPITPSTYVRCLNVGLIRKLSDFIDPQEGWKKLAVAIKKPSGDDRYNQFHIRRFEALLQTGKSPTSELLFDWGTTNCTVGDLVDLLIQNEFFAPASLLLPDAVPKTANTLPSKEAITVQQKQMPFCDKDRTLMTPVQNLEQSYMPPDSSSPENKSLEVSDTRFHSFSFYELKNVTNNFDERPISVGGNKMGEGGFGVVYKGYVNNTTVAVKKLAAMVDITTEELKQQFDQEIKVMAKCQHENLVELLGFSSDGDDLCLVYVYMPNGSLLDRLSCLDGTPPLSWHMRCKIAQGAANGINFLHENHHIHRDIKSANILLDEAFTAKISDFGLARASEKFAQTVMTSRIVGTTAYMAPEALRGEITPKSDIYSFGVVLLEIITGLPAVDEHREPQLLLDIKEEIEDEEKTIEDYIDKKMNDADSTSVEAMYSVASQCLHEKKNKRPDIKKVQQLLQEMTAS

[10] = Drug concentration in Lewis/Or1Rj naive rat model of joint inflammation at >60 ug, IART pretreated with compound 72 hrs prior to LPS/MSU treatment measured after 4 hrs; type: ADME; conditions: in vivo, dose > 60 µg, read-out: Ct
[11] = organism: Rattus norvegicus; test: Effect on Mmp3 mRNA level in meniscus of Lewis/Or1Rj naive rat model of joint inflammation >=30 ug, IART pretreated with compound 72 hrs prior to LPS/MSU treatment measured after 4 hrs by qPCR analysis; type: functional, organism-based; conditions: dose >= 30.0 µg, time 76.0 hrs
[12] = target: TRAF2 and NCK-interacting protein kinase (Homo sapiens) (UniProt Q9UKE5); test: Inhibition of TNIK (unknown origin) at 1 uM relative to control
[13] = tested on: Rattus norvegicus; test: Downregulation of Il6 mRNA level in meniscus of Lewis/Or1Rj naive rat model of joint inflammation administered intra-articularly pretreated with compound 72 hrs prior to LPS/MSU treatment measured after 4 hrs by qPCR analysis; type: functional, organism-based; conditions: dose <= 240.0 µg, route iart, time 76.0 hrs
[14] = target: Interleukin-1 receptor-associated kinase 1 (Homo sapiens) (UniProt P51617); test: Inhibition of IRAK1 (unknown origin) at 1 uM relative to control
Chain of Interleukin-1 receptor-associated kinase 1 (Homo sapiens) (P51617 whole entry, looked up): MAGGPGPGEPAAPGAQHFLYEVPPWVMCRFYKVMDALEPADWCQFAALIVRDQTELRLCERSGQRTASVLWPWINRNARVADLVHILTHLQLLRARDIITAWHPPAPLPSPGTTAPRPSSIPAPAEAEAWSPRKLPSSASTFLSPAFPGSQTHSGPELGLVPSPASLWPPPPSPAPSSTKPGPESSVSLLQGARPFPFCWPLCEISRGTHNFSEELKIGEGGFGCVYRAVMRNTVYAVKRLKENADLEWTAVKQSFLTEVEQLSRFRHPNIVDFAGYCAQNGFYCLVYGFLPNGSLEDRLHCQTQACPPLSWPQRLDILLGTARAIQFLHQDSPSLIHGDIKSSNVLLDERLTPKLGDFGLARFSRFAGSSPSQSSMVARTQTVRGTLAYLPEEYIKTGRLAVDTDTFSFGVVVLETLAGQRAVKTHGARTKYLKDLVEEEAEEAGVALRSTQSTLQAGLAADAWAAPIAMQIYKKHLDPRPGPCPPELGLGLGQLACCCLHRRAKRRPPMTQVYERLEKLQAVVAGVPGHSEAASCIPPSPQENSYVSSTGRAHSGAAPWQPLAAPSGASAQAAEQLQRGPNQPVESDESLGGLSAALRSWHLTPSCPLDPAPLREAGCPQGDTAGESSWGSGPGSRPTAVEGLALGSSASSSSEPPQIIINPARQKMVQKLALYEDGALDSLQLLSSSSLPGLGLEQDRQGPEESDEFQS

[15] = tested on: Mitogen-activated protein kinase kinase kinase 7 (TAK1, Rattus norvegicus); test: In vivo inhibition of TAK1 in Lewis/Or1Rj naive rat model of joint inflammation assessed as reduction in CXCL1 level administered intra-articularly pretreated with compound 72 hrs prior to LPS/MSU treatment measured after 4 hrs; conditions: dose <= 240.0 µg, route iart, time 76.0 hrs
[16] = target: Dual specificity protein kinase CLK4 (Homo sapiens) (UniProt Q9HAZ1); test: Inhibition of CLK4 (unknown origin) at 1 uM relative to control
Chain of Dual specificity protein kinase CLK4 (Homo sapiens) (Q9HAZ1 whole entry, looked up): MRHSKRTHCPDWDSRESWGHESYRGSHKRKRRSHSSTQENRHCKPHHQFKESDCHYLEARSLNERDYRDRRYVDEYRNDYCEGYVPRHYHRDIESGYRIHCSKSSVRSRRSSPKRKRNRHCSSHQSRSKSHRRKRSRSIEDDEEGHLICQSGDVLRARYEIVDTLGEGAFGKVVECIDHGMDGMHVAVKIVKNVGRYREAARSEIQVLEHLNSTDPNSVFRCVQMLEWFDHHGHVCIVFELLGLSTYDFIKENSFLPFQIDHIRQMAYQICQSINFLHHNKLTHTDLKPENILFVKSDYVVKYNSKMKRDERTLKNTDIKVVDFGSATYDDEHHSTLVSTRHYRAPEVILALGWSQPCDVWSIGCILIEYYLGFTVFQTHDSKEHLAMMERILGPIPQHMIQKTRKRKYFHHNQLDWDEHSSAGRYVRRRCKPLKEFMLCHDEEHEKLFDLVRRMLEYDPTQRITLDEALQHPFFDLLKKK

[17] = Drug concentration in tibia of Sprague-Dawley rat assessed as accumulation in synovial membrane of tibial plateau at 250 ug, IART measured for 168 hrs by LC-MS/MS analysis; type: ADME; conditions: dose 250 µg, read-out: Ct
[18] = Unbound drug concentration in Lewis/Or1Rj naive rat model of joint inflammation at >60 ug, IART pretreated with compound 72 hrs prior to LPS/MSU treatment measured after 4 hrs; type: ADME; conditions: in vivo, other, 76 h, dose > 60 µg
[19] = Drug concentration in tibia of Sprague-Dawley rat assessed as accumulation in tibial plateau at 250 ug, IART measured for 168 hrs by LC-MS/MS analysis; type: ADME, tissue-based; conditions: dose 250 µg, read-out: Drug uptake
[20] = target: Mitogen-activated protein kinase kinase kinase kinase 4 (Homo sapiens) (UniProt O95819); test: Inhibition of MAP4K4 (unknown origin) at 1 uM relative to control
Chain of Mitogen-activated protein kinase kinase kinase kinase 4 (Homo sapiens) (O95819 2-1239 limits assumed): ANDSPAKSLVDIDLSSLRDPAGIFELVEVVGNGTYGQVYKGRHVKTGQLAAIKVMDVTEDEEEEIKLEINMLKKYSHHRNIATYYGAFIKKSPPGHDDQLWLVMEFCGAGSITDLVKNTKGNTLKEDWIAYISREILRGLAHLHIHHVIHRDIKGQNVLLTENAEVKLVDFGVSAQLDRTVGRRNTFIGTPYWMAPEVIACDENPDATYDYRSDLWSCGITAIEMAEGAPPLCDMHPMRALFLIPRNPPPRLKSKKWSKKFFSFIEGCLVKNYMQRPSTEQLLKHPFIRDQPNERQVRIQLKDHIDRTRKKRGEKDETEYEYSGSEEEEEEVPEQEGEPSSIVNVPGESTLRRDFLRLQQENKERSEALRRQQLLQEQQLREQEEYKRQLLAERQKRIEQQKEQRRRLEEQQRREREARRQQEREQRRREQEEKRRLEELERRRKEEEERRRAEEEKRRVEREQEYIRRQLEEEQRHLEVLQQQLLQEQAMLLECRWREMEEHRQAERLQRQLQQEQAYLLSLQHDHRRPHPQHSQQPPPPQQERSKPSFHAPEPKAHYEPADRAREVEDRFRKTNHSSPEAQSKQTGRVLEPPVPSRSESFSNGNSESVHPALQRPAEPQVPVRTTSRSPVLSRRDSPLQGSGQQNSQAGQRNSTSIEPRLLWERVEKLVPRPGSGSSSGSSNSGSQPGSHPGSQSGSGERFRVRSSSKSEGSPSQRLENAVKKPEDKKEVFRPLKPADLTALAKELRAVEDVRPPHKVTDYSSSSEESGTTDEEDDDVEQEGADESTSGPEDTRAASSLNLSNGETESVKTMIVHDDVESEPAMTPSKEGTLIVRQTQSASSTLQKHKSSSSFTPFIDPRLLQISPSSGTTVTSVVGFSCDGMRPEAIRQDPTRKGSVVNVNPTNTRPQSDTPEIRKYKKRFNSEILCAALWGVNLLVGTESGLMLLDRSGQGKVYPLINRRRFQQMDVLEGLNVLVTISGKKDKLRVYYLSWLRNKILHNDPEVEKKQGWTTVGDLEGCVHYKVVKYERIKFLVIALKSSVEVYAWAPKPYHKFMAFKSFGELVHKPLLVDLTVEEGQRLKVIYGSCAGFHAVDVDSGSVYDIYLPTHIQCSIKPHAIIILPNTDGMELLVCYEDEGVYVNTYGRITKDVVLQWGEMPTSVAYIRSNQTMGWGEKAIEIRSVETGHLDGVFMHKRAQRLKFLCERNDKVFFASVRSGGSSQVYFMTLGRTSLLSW

[21] = target: Receptor-type tyrosine-protein kinase FLT3 (Homo sapiens) (UniProt P36888); test: Inhibition of FLT3 (unknown origin) at 1 uM relative to control
Chain of Receptor-type tyrosine-protein kinase FLT3 (Homo sapiens) (P36888 whole entry): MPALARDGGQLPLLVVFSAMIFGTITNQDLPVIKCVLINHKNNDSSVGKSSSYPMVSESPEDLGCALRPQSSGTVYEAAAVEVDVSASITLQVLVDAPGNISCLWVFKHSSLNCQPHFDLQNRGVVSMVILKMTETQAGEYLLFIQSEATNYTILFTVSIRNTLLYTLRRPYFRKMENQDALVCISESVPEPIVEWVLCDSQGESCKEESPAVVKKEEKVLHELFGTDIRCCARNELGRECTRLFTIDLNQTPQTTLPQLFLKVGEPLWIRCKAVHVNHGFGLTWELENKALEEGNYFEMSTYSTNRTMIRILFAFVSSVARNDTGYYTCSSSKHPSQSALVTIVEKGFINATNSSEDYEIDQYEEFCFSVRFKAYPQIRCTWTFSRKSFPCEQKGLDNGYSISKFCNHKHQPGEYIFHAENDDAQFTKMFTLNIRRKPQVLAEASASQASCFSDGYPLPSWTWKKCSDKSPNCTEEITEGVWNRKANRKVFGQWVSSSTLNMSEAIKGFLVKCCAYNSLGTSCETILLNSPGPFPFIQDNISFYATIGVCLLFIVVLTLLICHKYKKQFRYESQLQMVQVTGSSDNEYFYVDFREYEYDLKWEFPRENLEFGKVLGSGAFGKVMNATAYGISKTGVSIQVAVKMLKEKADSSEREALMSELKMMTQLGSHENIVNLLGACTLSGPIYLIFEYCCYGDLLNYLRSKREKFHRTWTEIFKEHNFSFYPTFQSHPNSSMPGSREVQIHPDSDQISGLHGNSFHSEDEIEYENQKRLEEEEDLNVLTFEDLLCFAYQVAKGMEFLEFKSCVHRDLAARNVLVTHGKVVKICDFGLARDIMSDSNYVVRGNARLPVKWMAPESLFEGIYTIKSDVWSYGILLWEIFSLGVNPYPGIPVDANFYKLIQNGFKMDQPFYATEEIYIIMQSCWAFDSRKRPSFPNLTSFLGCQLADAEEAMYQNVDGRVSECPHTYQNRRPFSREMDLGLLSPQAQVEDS

[22] = tested on: Rattus norvegicus; test: Downregulation of Cxcl1 mRNA level in meniscus of Lewis/Or1Rj naive rat model of joint inflammation administered intra-articularly pretreated with compound 72 hrs prior to LPS/MSU treatment measured after 4 hrs by qPCR analysis; type: functional, organism-based; conditions: dose <= 240.0 µg, route iart, time 76.0 hrs
[23] = Drug uptake in synovial fluid of Lewis/Or1Rj naive rat model of joint inflammation administered intra-articularly pretreated with compound 72 hrs prior to LPS/MSU treatment measured after 4 hrs; type: ADME; conditions: in vivo, other, 76 h, route iart, dose < 240 µg
[24] = target: Misshapen-like kinase 1 (Homo sapiens) (UniProt Q8N4C8); test: Inhibition of MINK1 (unknown origin) at 1 uM relative to control
Chain of Misshapen-like kinase 1 (Homo sapiens) (Q8N4C8 whole entry, looked up): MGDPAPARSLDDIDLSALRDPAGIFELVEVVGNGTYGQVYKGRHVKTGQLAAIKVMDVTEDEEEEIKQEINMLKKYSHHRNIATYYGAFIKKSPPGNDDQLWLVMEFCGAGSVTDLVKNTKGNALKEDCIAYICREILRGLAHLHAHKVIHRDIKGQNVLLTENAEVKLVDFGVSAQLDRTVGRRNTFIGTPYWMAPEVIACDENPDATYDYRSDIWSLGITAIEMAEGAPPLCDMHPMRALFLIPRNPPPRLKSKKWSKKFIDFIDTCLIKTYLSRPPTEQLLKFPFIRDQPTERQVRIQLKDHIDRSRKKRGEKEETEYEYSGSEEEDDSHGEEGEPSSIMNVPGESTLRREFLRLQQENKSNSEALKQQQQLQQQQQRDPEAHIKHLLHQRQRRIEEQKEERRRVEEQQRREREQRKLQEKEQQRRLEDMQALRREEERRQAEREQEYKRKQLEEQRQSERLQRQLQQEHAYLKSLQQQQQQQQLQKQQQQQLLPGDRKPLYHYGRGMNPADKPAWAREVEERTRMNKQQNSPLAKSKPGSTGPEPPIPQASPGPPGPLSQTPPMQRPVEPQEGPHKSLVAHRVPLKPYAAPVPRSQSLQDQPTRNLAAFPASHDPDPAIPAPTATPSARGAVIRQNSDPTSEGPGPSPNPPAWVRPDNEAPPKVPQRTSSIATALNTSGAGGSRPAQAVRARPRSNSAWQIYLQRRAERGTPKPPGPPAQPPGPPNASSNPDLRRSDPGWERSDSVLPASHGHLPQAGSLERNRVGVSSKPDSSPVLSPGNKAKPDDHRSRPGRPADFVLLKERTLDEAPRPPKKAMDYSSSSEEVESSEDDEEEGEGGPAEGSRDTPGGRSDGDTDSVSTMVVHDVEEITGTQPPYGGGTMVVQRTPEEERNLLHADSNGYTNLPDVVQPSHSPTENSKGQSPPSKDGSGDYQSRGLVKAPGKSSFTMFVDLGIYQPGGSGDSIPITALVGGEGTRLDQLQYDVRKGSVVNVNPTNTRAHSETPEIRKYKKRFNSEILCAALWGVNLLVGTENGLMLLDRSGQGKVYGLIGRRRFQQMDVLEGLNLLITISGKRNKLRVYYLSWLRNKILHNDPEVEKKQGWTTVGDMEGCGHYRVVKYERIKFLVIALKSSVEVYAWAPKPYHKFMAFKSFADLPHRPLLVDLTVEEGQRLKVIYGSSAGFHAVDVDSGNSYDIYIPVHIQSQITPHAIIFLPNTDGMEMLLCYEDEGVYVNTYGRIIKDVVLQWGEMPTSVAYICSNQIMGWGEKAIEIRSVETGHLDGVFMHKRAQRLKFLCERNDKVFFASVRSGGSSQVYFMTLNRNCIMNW

[25] = tested on: Mitogen-activated protein kinase kinase kinase 7 (TAK1, Rattus norvegicus); test: In vivo inhibition of TAK1 in Lewis/Or1Rj naive rat model of joint inflammation assessed as reduction in CXCL1 level at 15 ug, IART pretreated with compound 72 hrs prior to LPS/MSU treatment measured after 4 hrs relative to control; conditions: dose 15.0 µg, time 76.0 hrs
[26] = Toxicity in Sprague-Dawley rat assessed as drug tolerance at 50 ug, IART measured for 168 hrs by LC-MS/MS analysis; conditions: in vivo, other, dose 50 µg
[27] = Drug uptake in tibia of Sprague-Dawley rat assessed as accumulation at synovial membrane of tibial plateau at 50 ug, IART measured for 168 hrs by LC-MS/MS analysis; type: ADME, tissue-based; conditions: in vivo, other, dose 50 µg
[28] = Drug concentration in plasma of Sprague-Dawley rat at 50 ug, IART measured after 24 hrs by LC-MS/MS analysis; type: ADME, cell-free; conditions: dose 50 µg
[29] = Drug concentration in plasma of Sprague-Dawley rat at 50 ug, IART measured for 168 hrs by LC-MS/MS analysis; type: ADME, cell-free; conditions: dose 50 µg
[30] = Drug uptake in tibia of Sprague-Dawley rat assessed as accumulation at cartilage tissue of tibial plateau at 50 ug, IART measured for 168 hrs by LC-MS/MS analysis; type: ADME, tissue-based; conditions: in vivo, other, dose 50 µg
[31] = Drug uptake in synovial fluid of Sprague-Dawley rat at 50 ug, IART measured after 72 hrs by LC-MS/MS analysis; type: ADME, tissue-based; conditions: in vivo, other, dose 50 µg
[32] = Lipophilicity, logD of compound; type: physicochemical; conditions: octanol/water
[33] = Solubility in simulated synovial fluid; type: physicochemical

Row | SMILES | concentration at 168 h [1] [nM] | EC50 [2] [nM] | EC50 [3] [nM] | logP [4] | half-life [5] [h] | solubility thermodynamic at 20 h [6] [µM] | fraction unbound at 4 h, 5 µM [7] | Drug uptake(free) [8] | other results
1 | NC(=O)c1cccc(-c2cc(-c3ccc(NCC(=O)N4CCS(=O)(=O)CC4)nc3O[C@H]3CC[C@@H](O)CC3)on2)n1 | 489 | 251 | 631 | 2.4 |  | 0.13 (≈ 0.0742 µg/mL) | 0.452 | 221 nM | 
2 | CNC(=O)CNc1ccc(-c2cc(-c3cccc(C(N)=O)n3)no2)c(O[C@H]2CC[C@@H](O)CC2)n1 |  | 50.1 | 631 | 2.8 |  | 2.2 (≈ 1.03 µg/mL) |  |  | 
3 | CN1Cc2cc(-c3cc(-c4cccc(C(N)=O)c4)no3)c(O[C@H]3CC[C@@H](O)CC3)cc2C1=O | 9810 | 79.4 | 79.4 | 3.3 | 93 | 1.8 (≈ 0.805 µg/mL) | 0.158 | 1550 nM | inhibition [9]: 77%; concentration at 76 h [10]: ≥ 1000 nM; Activity [11]: Not active; Less Profound Effect Observed; inhibition [12]: 86%; Activity [13]: Dose-dependent-effect; inhibition [14]: 15%; inhibition [15]: Dose-dependent-effect; inhibition [16]: 88%; concentration at 168 h [17]: 631000 nM; Drug uptake(free) [18]: 100 nM; concentration at 168 h [19]: 42000 nM; inhibition [20]: 100%; inhibition [21]: 97%; Activity [22]: Dose-dependent-effect; Drug uptake [23]: Dose-dependent-effect; inhibition [24]: 88%; inhibition [25]: > 90%
4 | NC(=O)c1cccc(-c2cc(-c3cccnc3O[C@H]3CC[C@@H](O)CC3)on2)n1 | 14 | 158 | 251 | 3.8 | 7 | 4.5 (≈ 1.71 µg/mL) | 0.056 | < 1 nM | Activity [26]: Non-toxic; Drug uptake [27]: Active; concentration at 24 h [28]: 1 nM; concentration at 168 h [29]: < 100 nM; Drug uptake [30]: Active; Drug uptake [31]: Active
5 | CC(C)CC(=O)Nc1cncc(-c2ccc3[nH]nc(-c4nc5c(-c6cccc(F)c6)cncc5[nH]4)c3c2)c1 [LORECIVIVINT] |  |  |  |  |  |  |  |  | logD [32]: > 4.7; solubility [33]: 0.8 µM (≈ 0.404 µg/mL)

More lines, main results first:

Row | concentration at 168 h [1] [nM] | EC50 [2] [nM] | EC50 [3] [nM] | logP [4] | half-life [5] [h] | solubility thermodynamic at 20 h [6] [µM] | fraction unbound at 4 h, 5 µM [7] | Drug uptake(free) [8] | SMILES | other results
6 | 1210 | 126 | 100 | 3 | 80 | 2 (≈ 0.961 µg/mL) | 0.27 | 326 nM | CN(C)C(=O)CNc1ccc(-c2cc(-c3cccc(C(N)=O)n3)no2)c(O[C@H]2CC[C@@H](O)CC2)n1 | 
7 |  | 200 | 251 | 2.8 |  | 12 (≈ 5.41 µg/mL) |  |  | CN(C)C(=O)c1ccc(-c2cc(-c3cccc(C(N)=O)c3)no2)c(O[C@H]2CC[C@@H](O)CC2)n1 | 
8 |  | 126 | 79.4 | 3 |  | 2.9 (≈ 1.31 µg/mL) |  |  | CN(C)C(=O)c1ccc(-c2cc(-c3cccc(C(N)=O)n3)no2)c(O[C@H]2CC[C@@H](O)CC2)n1 | 
9 |  | 126 | 1000 | 4.5 |  |  |  |  | COc1ccc(-c2cc(-c3cccc(C(N)=O)n3)no2)c(O[C@H]2CC[C@@H](O)CC2)n1 | 
10 | 120 | 63.1 | 158 | 3.6 | 21 | 15 (≈ 5.93 µg/mL) | 0.088 | 11 nM | NC(=O)c1cccc(-c2cc(-c3ccc(N)nc3O[C@H]3CC[C@@H](O)CC3)on2)n1 | 
11 | 1840 | 63.1 | 126 | > 4.7 | 168 | 1 (≈ 0.409 µg/mL) | 0.019 | 35 nM | CNc1ccc(-c2cc(-c3cccc(C(N)=O)n3)no2)c(O[C@H]2CC[C@@H](O)CC2)n1 | 
12 |  | 501 | 1000 | 4 | 11 | 0.2 (≈ 0.0875 µg/mL) |  | Below_limit_of_detection | CC(=O)Nc1ccc(-c2cc(-c3cccc(C(N)=O)n3)no2)c(O[C@H]2CC[C@@H](O)CC2)n1 | Ct ([1]; in vivo, other, 168 h, dose 250 µg): Below_limit_of_detection
13 |  | 158 | 126 | 2.8 |  | 10 (≈ 4.5 µg/mL) |  |  | CN(C)C(=O)c1ccc(-c2cc(-c3cccc(C(N)=O)c3)no2)c(O[C@H]2CC[C@@H](O)CC2)c1 | 
